For 20 molecules, IC50 and EC50 results are on record in patent US10336762B2 (priority 2017, dated 2019).

In one test the target is IRAK4 enzyme (Homo sapiens (Human), UniProt Q9NWZ3). The test is described as follows: biochemical. Format: biochemical. The following applies: IRAK4 enzyme, TR-FRET, 500 μM ATP. (TR-FRET usually uses a lanthanide donor and a delayed reading to cut background.)
A further test relates to TNFα. The test is described as follows: cells. It is filed as cell-based, human. To be noted: Homo sapiens, Monocyte, LPS-stimulated human monocytes, TNFα content; read-out: EC50 TNF.

Each structure is given as a SMILES string.

Sequence of IRAK4 enzyme (Q9NWZ3 whole entry): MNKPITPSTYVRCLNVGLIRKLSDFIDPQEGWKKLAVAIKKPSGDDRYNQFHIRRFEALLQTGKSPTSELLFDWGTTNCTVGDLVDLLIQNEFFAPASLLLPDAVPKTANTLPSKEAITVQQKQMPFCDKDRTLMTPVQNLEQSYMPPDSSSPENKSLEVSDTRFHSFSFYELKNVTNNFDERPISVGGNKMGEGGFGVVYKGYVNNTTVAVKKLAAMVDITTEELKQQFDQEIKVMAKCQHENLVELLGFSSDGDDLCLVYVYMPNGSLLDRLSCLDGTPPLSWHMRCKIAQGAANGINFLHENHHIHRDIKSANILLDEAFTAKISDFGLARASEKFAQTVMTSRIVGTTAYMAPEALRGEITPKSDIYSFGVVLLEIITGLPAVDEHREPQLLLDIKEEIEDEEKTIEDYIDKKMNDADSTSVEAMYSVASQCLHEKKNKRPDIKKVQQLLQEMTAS

Usually IC50 stands for the midpoint of a concentration-inhibition curve. The low end stands for greater potency in that assay, the high end for weaker potency in that assay. One may read the EC50 as the concentration at which the effect is half-maximal. As to `CC(C)Nc1cc(-c2ccc3cc(C(N)=O)cnn23)ncc1C(=O)NC1CS(=O)(=O)C1` [Example 78, 7-(5-((1,1-dioxidothietan-3-yl)carbamoyl)-4-(isopropyl-amino)pyridin-2-yl)pyrrolo[1,2-b] pyridazine-3-carboxamide], 0.027 µM corresponded to half-maximal inhibition on IRAK4 enzyme (IC50). Also, in the test with TNFα, the EC50 amounted to 1.62 µM.
Consider `CC(C)Nc1cc(-c2ccc3cc(C(N)=O)cnn23)ncc1C(=O)NCC1CS(=O)(=O)C1` [Example 79, 7-(5-(((1,1-dioxidothietan-3-yl)methyl)carbamoyl)-4-(isopropylamino)pyridin-2-yl)pyrrolo[1,2-b] pyridazine-3-carboxamide], for which the IC50 against IRAK4 enzyme worked out at 0.018 µM. The EC50 with TNFα amounted to 1.82 µM.
`CC(C)(O)CCNc1cc(-c2ccc3cc(C#N)cnn23)ncc1C(=O)NC[C@@H](F)C(C)(C)O` [Example 80, (R)-6-(3-cyanopyrrolo[1,2-b]pyridazin-7-yl)-N-(2-fluoro-3-hydroxy-3-methylbutyl)-4-((3-hydroxy-3-methylbutyl)amino) nicotinamide]: on IRAK4 enzyme, the IC50 was under 0.001 µM. Further, the EC50 in the test with TNFα is 0.088 µM.
On to `CC1(C)CC(Nc2cc(-c3ccc4cc(C#N)cnn34)ncc2C(=O)NC[C@@H](F)C(C)(C)O)CCO1` (stereo partly drawn) [Example 81, 6-(3-cyanopyrrolo[1,2-b]pyridazin-7-yl)-4-((2,2-dimethyltetrahydro-2H-pyran-4-yl)amino)-N-((R)-2-fluoro-3-hydroxy-3-methylbutyl) nicotinamide], for which, on IRAK4 enzyme, 0.001 µM corresponded to half-maximal inhibition (IC50). The EC50 in the test on TNFα was found to be 0.134 µM.
Take `CC(C)(O)[C@H](F)CNC(=O)c1cnc(-c2ccc3cc(C#N)cnn23)cc1NC1CC2(COC2)C1` [Example 82, (R)-4-(2-oxaspiro[3.3]heptan-6-ylamino)-6-(3-cyanopyrrolo[1,2-b]pyridazin-7-yl)-N-(2-fluoro-3-hydroxy-3-methylbutyl) nicotinamide]: the IC50 on IRAK4 enzyme is under 0.001 µM. Further, in the test with TNFα, the concentration giving a half-maximal response (EC50) was found to be 0.079 µM.
`CC(C)(O)[C@H](F)CNC(=O)c1cnc(-c2ccc3cc(C#N)cnn23)cc1NC1CCN(C2COC2)CC1` [Example 83, (R)-6-(3-cyanopyrrolo[1,2-b]pyridazin-7-yl)-N-(2-fluoro-3-hydroxy-3-methylbutyl)-4-((1-(oxetan-3-yl)piperidin-4-yl)amino) nicotinamide] showed an IC50 against IRAK4 enzyme of 0.001 µM. In addition, the EC50 with TNFα stood at 0.221 µM.
In turn, `CC(C)Nc1cc(-c2ccc3cc(C#N)cnn23)ncc1C(=O)NCCCS(C)(=O)=O` [Example 85, 6-(3-cyanopyrrolo[1,2-b]pyridazin-7-yl)-4-(isopropyl-amino)-N-(3-(methylsulfonyl)propyl) nicotinamide] registered a concentration for half-maximal inhibition (IC50) against IRAK4 enzyme of 0.001 µM. Also, in the test with TNFα, the EC50 was 0.067 µM.
The molecule `CC(C)Nc1cc(-c2ccc3cc(C#N)cnn23)ncc1C(=O)NC1CCN(C2COC2)CC1` [Example 86, 6-(3-cyanopyrrolo[1,2-b]pyridazin-7-yl)-4-(isopropylamino)-N-(1-(oxetan-3-yl)piperidin-4-yl) nicotinamide] gave an IC50 on IRAK4 enzyme of 0.004 µM. The EC50 with TNFα turned out to be 0.321 µM.
At IRAK4 enzyme, `COC(C)(C)CCNC(=O)c1cnc(-c2ccc3cc(C#N)cnn23)cc1NC(C)C` [Example 87, 6-(3-cyanopyrrolo[1,2-b]pyridazin-7-yl)-4-(isopropylamino)-N-(3-methoxy-3-methylbutyl)nicotinamide] registered an IC50 of 0.001 µM. Further, the EC50 with TNFα was determined as 0.16 µM.
On IRAK4 enzyme, `CC(C)Nc1cc(-c2ccc3cc(C#N)cnn23)ncc1C(=O)NCCNS(C)(=O)=O` [Example 88, 6-(3-cyanopyrrolo[1,2-b]pyridazin-7-yl)-4-(isopropyl-amino)-N-(2-(methylsulfonamido)ethyl) nicotinamide] yielded an IC50 of 0.003 µM. Besides, the EC50 in the test on TNFα is 0.209 µM.
As for `CC(C)(O)[C@H](F)CNC(=O)c1cnc(-c2ccc3cc(C#N)cnn23)cc1Nc1cnn(CC(F)F)c1` [Example 89, (R)-6-(3-cyanopyrrolo[1,2-b]pyridazin-7-yl)-4-((1-(2,2-difluoroethyl)-1H-pyrazol-4-yl)amino)-N-(2-fluoro-3-hydroxy-3-methylbutyl) nicotinamide], at IRAK4 enzyme, the 50% inhibitory concentration (IC50) was under 0.001 µM. Moreover, in the test with TNFα, the EC50 came out at 0.016 µM.
Consider `CC(C)Nc1cc(-c2ccc3cc(C#N)cnn23)ncc1C(=O)NC1CCC(C)(O)CC1` (stereo not shown) [Example 90, 6-(3-cyanopyrrolo[1,2-b]pyridazin-7-yl)-N-((1s,4s)-4-hydroxy-4-methylcyclohexyl)-4-(isopropylamino) nicotinamide], for which, on IRAK4 enzyme, inhibition was half-maximal at 0.003 µM (IC50). For the same molecule, the EC50 in the test on TNFα is 0.417 µM.
On the same counts, the results for `CC(C)Nc1cc(-c2ccc3cc(C#N)cnn23)ncc1C(=O)NCCC1(O)CCC1` [Example 91, 6-(3-cyanopyrrolo[1,2-b]pyridazin-7-yl)-N-(2-(1-hydroxycyclobutyl)ethyl)-4-(isopropylamino) nicotinamide] are under 0.001 µM and 0.062 µM.
Consider `CC(C)Nc1cc(-c2ccc3cc(C#N)cnn23)ncc1C(=O)NCCS(C)(=O)=O` [Example 92, 6-(3-cyanopyrrolo[1,2-b]pyridazin-7-yl)-4-(isopropylamino)-N-(2-(methylsulfonyl)ethyl) nicotinamide], for which the IC50 against IRAK4 enzyme was 0.002 µM. In addition, the EC50 in the test on TNFα was found to be 0.08 µM.
The molecule `CC(C)(O)[C@H](F)CNC(=O)c1cnc(-c2ccc3cc(C#N)cnn23)cc1N[C@@H]1C[C@@H]2CC[C@H]1O2` [Example 93, 4-(((1R,2R,4S)-7-oxabicyclo[2.2.1]heptan-2-yl)amino)-6-(3-cyano-pyrrolo[1,2-b]pyridazin-7-yl)-N-((R)-2-fluoro-3-hydroxy-3-methylbutyl)nicotinamide] had an IC50 at IRAK4 enzyme of 0.001 µM. Further, the EC50 with TNFα is 0.078 µM.
In turn, `CC(C)(O)[C@H](F)CNC(=O)c1cnc(-c2ccc3cc(C#N)cnn23)cc1N[C@@H]1C[C@H]2CC[C@@H]1O2` [Example 94, 4-(((1S,2R,4R)-7-oxa-bicyclo[2.2.1]heptan-2-yl)amino)-6-(3-cyanopyrrolo[1,2-b]pyridazin-7-yl)-N-((R)-2-fluoro-3-hydroxy-3-methylbutyl)nicotinamide] had an IC50 against IRAK4 enzyme of 0.001 µM. In addition, the EC50 in the test on TNFα stood at 0.092 µM.
The molecule `CC(C)Nc1cc(-c2ccc3cc(C#N)cnn23)ncc1C(=O)NCCC1(O)CCOCC1` [Example 95, 6-(3-cyanopyrrolo[1,2-b]pyridazin-7-yl)-N-(2-(4-hydroxytetrahydro-2H-pyran-4-yl)ethyl)-4-(isopropylamino) nicotinamide] came in with an IC50 on IRAK4 enzyme of 0.001 µM. Also, the EC50 in the test with TNFα came out at 0.042 µM.
`CC(C)Nc1cc(-c2ccc3cc(C#N)cnn23)ncc1C(=O)NC1CC2(COC2)C1` [Example 96, 6-(3-cyanopyrrolo[1,2-b]pyridazin-7-yl)-4-(isopropyl-amino)-N-(2-oxaspiro[3.3]heptan-6-yl) nicotinamide] returned an IC50 against IRAK4 enzyme of 0.002 µM. Also, in the test on TNFα, the EC50 amounted to 0.079 µM.
As to `CC(C)(O)[C@H](F)CNC(=O)c1cnc(-c2ccc3cc(C#N)cnn23)cc1NCC1(O)CC1` [Example 97, (R)-6-(3-cyanopyrrolo[1,2-b]pyridazin-7-yl)-N-(2-fluoro-3-hydroxy-3-methylbutyl)-4-(((1-hydroxycyclopropyl)methyl)amino)nicotinamide], the IC50 against IRAK4 enzyme is 0.002 µM. For the same molecule, in the test with TNFα, the EC50 is 0.18 µM.
Taken in the same sequence, the figures for `CC(C)(O)[C@H](F)CNC(=O)c1cnc(-c2ccc3cc(C#N)cnn23)cc1NC1CN(S(C)(=O)=O)C1` [Example 98, (R)-6-(3-cyanopyrrolo[1,2-b]pyridazin-7-yl)-N-(2-fluoro-3-hydroxy-3-methylbutyl)-4-((1-(methylsulfonyl)azetidin-3-yl)amino)nicotinamide] were 0.002 µM and 0.358 µM.
